What all share (assay type): cell-based
Test [1] has as its target T1, human EGFR exon 20 insertion NPG (H773_V774insNPG) (Homo sapiens, UniProt P00533, INS772GNP).
T1 construct: expressed in transfected cells; host or cells: Ba/F3 (murine pro-B) cells transduced with lentivirus from pLVX-IRES puro
The test is described as follows: Ba/F3-EGFR-Exon20-NPG cell anti-proliferative assay (CellTiter 96 MTS, 72 h). The note with it: Ba/F3-EGFR-Exon20-NPG cells. Summed up: (§1)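 Ba/F3 cells made IL-3-independent by lentiviral EGFR exon 20 NPG or ASV insertion were exposed 72 h at 37 °C to 4-fold dilutions of compound (top 10,000 nM). Viability read by MTS tetrazolium conversion, absorbance 490 nm after 2 h.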

The target in test [2] is T2, human EGFR exon 20 insertion ASV (V769_D770insASV) (Homo sapiens, UniProt P00533, INS769ASV).
T2 construct: expressed in transfected cells; host or cells: Ba/F3 (murine pro-B) cells transduced with lentivirus from pLVX-IRES puro
T2 sequence (P00533 with tags, fused parts or gaps INS769ASV): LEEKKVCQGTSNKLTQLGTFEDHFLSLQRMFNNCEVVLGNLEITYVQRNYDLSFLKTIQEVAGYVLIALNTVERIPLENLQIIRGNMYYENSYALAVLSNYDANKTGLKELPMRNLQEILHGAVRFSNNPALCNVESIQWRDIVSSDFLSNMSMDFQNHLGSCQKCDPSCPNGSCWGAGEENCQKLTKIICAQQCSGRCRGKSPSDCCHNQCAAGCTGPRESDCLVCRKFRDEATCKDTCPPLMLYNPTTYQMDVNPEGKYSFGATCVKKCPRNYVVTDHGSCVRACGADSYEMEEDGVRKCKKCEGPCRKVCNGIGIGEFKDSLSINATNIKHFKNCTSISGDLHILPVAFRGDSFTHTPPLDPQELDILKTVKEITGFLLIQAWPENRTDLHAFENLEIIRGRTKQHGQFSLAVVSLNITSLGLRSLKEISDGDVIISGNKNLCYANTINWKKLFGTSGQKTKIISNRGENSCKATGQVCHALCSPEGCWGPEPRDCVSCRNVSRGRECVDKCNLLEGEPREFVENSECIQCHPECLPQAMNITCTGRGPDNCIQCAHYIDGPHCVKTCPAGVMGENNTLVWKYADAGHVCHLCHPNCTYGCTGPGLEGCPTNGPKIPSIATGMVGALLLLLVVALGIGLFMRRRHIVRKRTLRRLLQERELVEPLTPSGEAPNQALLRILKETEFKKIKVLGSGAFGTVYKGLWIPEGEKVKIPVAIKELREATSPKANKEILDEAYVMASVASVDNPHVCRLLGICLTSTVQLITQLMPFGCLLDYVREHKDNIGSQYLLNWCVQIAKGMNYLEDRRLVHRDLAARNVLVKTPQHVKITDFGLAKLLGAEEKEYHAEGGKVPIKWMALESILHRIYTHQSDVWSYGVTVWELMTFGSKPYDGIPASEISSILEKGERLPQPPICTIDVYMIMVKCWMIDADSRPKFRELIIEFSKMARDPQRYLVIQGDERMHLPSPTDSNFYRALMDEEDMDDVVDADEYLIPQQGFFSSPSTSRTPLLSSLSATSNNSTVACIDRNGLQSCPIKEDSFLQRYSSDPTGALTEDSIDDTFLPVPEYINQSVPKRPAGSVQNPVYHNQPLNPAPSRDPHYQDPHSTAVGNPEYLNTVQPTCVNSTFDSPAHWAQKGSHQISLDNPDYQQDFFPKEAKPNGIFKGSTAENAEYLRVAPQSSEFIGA
As to the kind of experiment: Ba/F3-EGFR-Exon20-ASV cell anti-proliferative assay (CellTiter 96 MTS, 72 h). Particulars: Ba/F3-EGFR-Exon20-ASV cells. In outline:
as §1

Test [3] deals with T3, human EGFR E746-A750 deletion and T790M Mutation (Homo sapiens, UniProt P00533, DEL746-750/T790M).
T3 construct: expressed in transfected cells; host or cells: Ba/F3 (murine pro-B) cells transduced with lentivirus from pLVX-IRES puro
T3 sequence (P00533 with tags, fused parts or gaps DEL746-750/T790M): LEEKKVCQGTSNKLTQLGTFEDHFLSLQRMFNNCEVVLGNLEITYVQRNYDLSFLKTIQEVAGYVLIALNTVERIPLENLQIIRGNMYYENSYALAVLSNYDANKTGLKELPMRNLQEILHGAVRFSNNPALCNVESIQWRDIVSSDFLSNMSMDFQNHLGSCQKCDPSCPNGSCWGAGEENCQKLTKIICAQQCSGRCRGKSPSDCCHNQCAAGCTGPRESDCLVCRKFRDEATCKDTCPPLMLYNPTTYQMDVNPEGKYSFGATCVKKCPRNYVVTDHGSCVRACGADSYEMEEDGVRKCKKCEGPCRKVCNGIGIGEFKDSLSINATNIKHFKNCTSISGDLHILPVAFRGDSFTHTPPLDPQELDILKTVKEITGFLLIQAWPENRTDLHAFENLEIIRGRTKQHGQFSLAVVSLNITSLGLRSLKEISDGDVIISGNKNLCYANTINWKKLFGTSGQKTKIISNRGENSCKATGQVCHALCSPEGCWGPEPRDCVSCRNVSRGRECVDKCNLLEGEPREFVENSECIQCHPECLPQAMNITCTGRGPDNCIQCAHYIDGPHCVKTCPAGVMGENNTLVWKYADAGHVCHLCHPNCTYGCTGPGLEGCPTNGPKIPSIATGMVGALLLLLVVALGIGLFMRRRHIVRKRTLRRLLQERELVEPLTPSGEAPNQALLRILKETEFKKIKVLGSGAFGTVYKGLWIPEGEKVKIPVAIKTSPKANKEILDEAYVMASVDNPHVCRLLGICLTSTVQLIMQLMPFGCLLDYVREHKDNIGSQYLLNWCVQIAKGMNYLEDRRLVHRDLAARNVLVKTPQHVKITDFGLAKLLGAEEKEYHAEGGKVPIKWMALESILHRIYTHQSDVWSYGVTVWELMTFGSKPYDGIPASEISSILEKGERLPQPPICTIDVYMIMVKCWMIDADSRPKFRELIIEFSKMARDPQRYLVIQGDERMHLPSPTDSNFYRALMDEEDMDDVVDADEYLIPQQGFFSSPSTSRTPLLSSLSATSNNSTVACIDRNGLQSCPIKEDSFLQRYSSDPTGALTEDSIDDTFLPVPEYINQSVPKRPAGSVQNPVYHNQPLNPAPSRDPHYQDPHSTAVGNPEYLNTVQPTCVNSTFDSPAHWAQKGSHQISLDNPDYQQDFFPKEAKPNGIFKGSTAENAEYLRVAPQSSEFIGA
As to the kind of experiment: Ba/F3-EGFR-Del/T790M cell anti-proliferative assay (CellTiter 96 MTS, 72 h). Particulars: Ba/F3-EGFR-Del/T790M cells. Summed up: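 Ba/F3 cells made IL-3-independent by lentiviral human EGFR E746-A750 del/T790M, puromycin-selected. Cells treated 72 h at 37 °C with compound, 4-fold dilutions from 10,000 nM top concentration. Viability read by MTS tetrazolium-to-formazan conversion, absorbance at 490 nm after 2 h with reagent.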

Test [4] addresses T4, Her2 exon 20 YVMA insertion (A775_G776ins YVMA) (Homo sapiens, UniProt P04626, INS775YVMA).
T4 construct: expressed in transfected cells; host or cells: Ba/F3 (murine pro-B) cells transduced with lentivirus from pLVX-IRES puro
As to the kind of experiment: Ba/F3-Her2 Exon20 YVMA cell anti-proliferative assay (CellTiter 96 MTS, 72 h). Particulars: Ba/F3-Her2 Exon20 YVMA cells. In outline: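 IL-3-independent Ba/F3 cells transduced with the YVMA insertion were treated with compound in 4-fold dilutions from 10,000 nM top. After 72 h at 37° C, viable cells were quantified by MTS tetrazolium conversion, with absorbance read at 490 nm after 2 h.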

A value given as a limit tells only on which side of the number the result lay.

T1 sequence (P00533 with tags, fused parts or gaps INS772GNP): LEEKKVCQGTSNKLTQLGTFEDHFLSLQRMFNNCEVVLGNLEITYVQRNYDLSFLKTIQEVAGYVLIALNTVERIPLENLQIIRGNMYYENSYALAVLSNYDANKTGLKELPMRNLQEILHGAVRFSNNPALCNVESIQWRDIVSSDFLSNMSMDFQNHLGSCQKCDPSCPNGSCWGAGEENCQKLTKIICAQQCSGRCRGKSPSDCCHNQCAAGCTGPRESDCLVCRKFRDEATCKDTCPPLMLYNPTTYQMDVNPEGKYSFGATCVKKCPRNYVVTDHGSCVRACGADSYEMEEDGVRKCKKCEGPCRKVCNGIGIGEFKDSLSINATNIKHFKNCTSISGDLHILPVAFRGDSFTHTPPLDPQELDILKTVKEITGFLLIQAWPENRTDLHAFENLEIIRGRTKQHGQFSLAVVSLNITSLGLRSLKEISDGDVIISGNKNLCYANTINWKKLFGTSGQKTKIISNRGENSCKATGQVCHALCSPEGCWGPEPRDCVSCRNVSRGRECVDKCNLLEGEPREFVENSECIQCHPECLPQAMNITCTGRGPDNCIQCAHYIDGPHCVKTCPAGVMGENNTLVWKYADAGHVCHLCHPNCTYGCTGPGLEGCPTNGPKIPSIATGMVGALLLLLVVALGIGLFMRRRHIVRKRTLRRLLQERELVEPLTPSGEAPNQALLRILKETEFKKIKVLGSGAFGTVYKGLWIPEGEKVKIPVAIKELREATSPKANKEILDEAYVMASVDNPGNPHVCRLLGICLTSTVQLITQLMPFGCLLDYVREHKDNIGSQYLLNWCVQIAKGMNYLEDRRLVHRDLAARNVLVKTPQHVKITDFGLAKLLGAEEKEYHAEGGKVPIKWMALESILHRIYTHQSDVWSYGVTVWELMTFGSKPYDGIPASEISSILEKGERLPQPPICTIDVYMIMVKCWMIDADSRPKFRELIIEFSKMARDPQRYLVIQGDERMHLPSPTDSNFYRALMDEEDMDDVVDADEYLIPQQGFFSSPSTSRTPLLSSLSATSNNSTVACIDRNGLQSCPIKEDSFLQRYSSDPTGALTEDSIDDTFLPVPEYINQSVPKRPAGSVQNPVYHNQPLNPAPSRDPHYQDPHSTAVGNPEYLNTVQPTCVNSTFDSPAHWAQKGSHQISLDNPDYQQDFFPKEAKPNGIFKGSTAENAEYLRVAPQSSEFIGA
T4 sequence (P04626 with tags, fused parts or gaps INS775YVMA): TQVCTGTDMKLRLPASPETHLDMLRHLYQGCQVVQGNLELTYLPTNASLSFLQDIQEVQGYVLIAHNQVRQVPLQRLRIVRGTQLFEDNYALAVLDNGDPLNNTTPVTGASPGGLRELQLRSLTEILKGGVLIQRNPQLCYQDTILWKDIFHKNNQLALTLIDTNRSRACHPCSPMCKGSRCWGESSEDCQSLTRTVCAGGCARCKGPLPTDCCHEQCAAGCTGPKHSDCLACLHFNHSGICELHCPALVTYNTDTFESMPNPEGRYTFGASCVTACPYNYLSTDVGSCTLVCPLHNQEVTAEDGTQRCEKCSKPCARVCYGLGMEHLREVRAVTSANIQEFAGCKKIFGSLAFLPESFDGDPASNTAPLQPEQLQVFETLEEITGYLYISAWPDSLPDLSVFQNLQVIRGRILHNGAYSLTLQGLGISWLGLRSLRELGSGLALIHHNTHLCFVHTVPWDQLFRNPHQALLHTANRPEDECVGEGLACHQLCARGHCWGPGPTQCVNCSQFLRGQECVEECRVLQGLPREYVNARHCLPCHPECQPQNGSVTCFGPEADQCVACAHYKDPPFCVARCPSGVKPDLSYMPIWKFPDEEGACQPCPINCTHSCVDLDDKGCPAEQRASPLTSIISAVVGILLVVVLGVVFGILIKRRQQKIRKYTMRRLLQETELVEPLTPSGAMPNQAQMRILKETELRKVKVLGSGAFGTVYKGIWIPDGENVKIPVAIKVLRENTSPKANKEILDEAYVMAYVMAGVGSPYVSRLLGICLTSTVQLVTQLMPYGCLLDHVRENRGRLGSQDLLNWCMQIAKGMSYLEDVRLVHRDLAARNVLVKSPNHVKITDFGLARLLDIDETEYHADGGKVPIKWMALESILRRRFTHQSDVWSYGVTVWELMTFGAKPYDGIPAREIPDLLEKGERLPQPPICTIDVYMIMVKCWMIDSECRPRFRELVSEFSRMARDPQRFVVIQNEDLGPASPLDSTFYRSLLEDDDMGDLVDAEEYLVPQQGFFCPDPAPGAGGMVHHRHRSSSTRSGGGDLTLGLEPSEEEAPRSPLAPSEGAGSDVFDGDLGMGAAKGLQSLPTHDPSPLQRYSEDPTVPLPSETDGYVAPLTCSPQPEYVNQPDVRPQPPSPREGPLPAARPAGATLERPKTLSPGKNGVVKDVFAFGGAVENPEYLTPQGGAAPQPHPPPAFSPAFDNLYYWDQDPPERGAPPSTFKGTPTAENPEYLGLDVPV

A word on the IC50: it is the concentration at which inhibition is half-maximal. Low readings indicate higher potency, high ones lower potency. Turning to `C=CC(=O)Nc1cc(Nc2nccc(-c3c(N4CCC(O)C4)n4c5c(cccc35)CCC4)n2)c(OC)cc1N(C)CCN(C)C` (centres unmarked) [Example 61, N-(2-((2-(dimethylamino)ethyl)(methyl)amino)-5-((4-(2-(3-hydroxypyr4rolidin-1-yl)5,6-dihydro-4H-pyrrolo[3,2,1-ij]quinolin-1-yl)pyrimidin-2-yl)amino)-4-methoxyphenyl)acrylamide], the IC50 in test [1], in test [2] and in test [4] was less than 100 nM throughout. Also, the “EGFR exon 19 deletion and exon 20 T790M mutation IC50” value in test [3] was “A (IC50 value for the indicated mutant below about 100 nM)”.

For the compound `C=CC(=O)Nc1cc(Nc2ncc(OCC#N)c(-c3cn4c5c(cccc35)CCC4)n2)c(OC)cc1N(C)CCN(C)C` [Example 50, N-(5-((5-(cyanomethoxy)-4-(5,6-dihydro-4H-pyrrolo[3,2,1-ij]quinolin-1-yl)pyrimidin-2-yl)amino)-2-((2-(dimethylamino)ethyl)(methyl)amino)-4-methoxyphenyl)acrylamide], the IC50 in test [1], in test [2] and in test [4] was less than 100 nM in each case. For the same compound, the “EGFR exon 19 deletion and exon 20 T790M mutation IC50” value in test [3] is “A (IC50 value for the indicated mutant below about 100 nM)”.

Turning to `C=CC(=O)Nc1cc(Nc2ncc(C#N)c(-c3cn4c5c(cccc35)N(C)CC4)n2)c(OC)cc1N(C)CCN(C)C` [Example 56, N-(5-((5-cyano-4-(1-methyl-2,3-dihydro-1H-pyrrolo[1,2,3-de]quinoxalin-6-yl)pyrimidin-2-yl)amino)-2-((2-(dimethylamino)ethyl)-(methyl)amino)-4-methoxyphenyl)acrylamide], the IC50 was in the range of 100 to 500 nM in test [1], 500 to 1000 nM in test [2] and 500 to 1000 nM in test [4]. The “EGFR exon 19 deletion and exon 20 T790M mutation IC50” value in test [3] was “A (IC50 value for the indicated mutant below about 100 nM)”.

As to `C=CC(=O)Nc1cc(Nc2nccc(-c3c(N4CC[C@H](O)C4)n4c5c(cccc35)CCC4)n2)c(OC)cc1N(C)CCN(C)C` [Example 75], the IC50 in test [1], in test [2] and in test [4] was less than 100 nM in each case. The “EGFR exon 19 deletion and exon 20 T790M mutation IC50” value in test [3] is on record as “A (IC50 value for the indicated mutant below about 100 nM)”.

In the case of `C=CC(=O)Nc1cc(Nc2ncc(-c3ncco3)c(-c3cn4c5c(cccc35)CCC4)n2)c(OC)cc1N(C)CCN(C)C` [Example 62, N-(5-((4-(5,6-dihydro-4H-pyrrolo[3,2,1-ij]quinolin-1-yl)-5-(oxazol-2-yl)pyrimidin-2-yl)amino)-2-((2-(dimethylamino)ethyl)(methyl)amino)-4-methoxyphenyl)acrylamide], the IC50 in test [1], in test [2] and in test [4] was less than 100 nM in each case. The “EGFR exon 19 deletion and exon 20 T790M mutation IC50” value in test [3] is on record as “A (IC50 value for the indicated mutant below about 100 nM)”.

As to `C=CC(=O)Nc1cc(Nc2nccc(-c3c(N4CCCC4)n4c5c(cccc35)CCC4)n2)c(OC)cc1N(C)CCN(C)C` [Example 93], the IC50 in test [1] is less than 100 nM; in test [2] it was less than 100 nM; in test [4], 100 to 500 nM. For the same compound, the “EGFR exon 19 deletion and exon 20 T790M mutation IC50” value in test [3] is “A (IC50 value for the indicated mutant below about 100 nM)”.

Take `C=CC(=O)Nc1cc(Nc2ncc(-c3cnn(C)c3)c(-c3cn4c5c(cccc35)CCC4)n2)c(OC)cc1N(C)CCN(C)C` [Example 49, N-(5-((4-(5,6-dihydro-4H-pyrrolo[3,2,1-ij]quinolin-1-yl)-5-(1-methyl-1H-pyrazol-4-yl)pyrimidin-2-yl)amino)-2-((2-(dimethylamino)ethyl)(methyl)amino)-4-methoxyphenyl)acrylamide]: the IC50 in test [1], in test [2] and in test [4] was less than 100 nM each time. The “EGFR exon 19 deletion and exon 20 T790M mutation IC50” value in test [3] is recorded as “A (IC50 value for the indicated mutant below about 100 nM)”.

Regarding `C=CC(=O)Nc1cc(Nc2ncc(C(=O)NC)c(-c3nn4c5c(cccc35)OCC4)n2)c(OC)cc1N(C)CCN(C)C` [Example 67], the IC50 in test [1], in test [2] and in test [4] was greater than 1000 nM each time. In test [3], the “EGFR exon 19 deletion and exon 20 T790M mutation IC50” value is on record as “D (IC50 value for the indicated mutant greater than about 1 μM)”.

Take `C=CC(=O)Nc1cc(Nc2ncc(OCC(F)F)c(-c3cn4c5c(cccc35)CCC4)n2)c(OC)cc1N(C)CCN(C)C` [Example 95]: the IC50 in test [1] was less than 100 nM; in test [2], less than 100 nM; in test [4], 100 to 500 nM. Further, the “EGFR exon 19 deletion and exon 20 T790M mutation IC50” value in test [3] is recorded as “A (IC50 value for the indicated mutant below about 100 nM)”.

As for `C=CC(=O)Nc1cc(Nc2ncc(C(=O)O)c(-c3cn4c5c(cccc35)CCC4)n2)c(OC)cc1N(C)CCN(C)C` [Example 45, 2-((5-acrylamido-4-((2-(dimethylamino)ethyl)(methyl)amino)-2-methoxyphenyl)amino)-4-(5,6-dihydro-4H-pyrrolo[3,2,1-ij]quinolin-1-yl)pyrimidine-5-carboxylic acid], the IC50 in test [1], in test [2] and in test [4] was greater than 1000 nM in each case. Besides, the “EGFR exon 19 deletion and exon 20 T790M mutation IC50” value in test [3] was “D (IC50 value for the indicated mutant greater than about 1 μM)”.

`C=CC(=O)Nc1cc(Nc2nccc(-c3c(N4CC[C@@H](O)C4)n4c5c(cccc35)CCC4)n2)c(OC)cc1N(C)CCN(C)C` [Example 74, (R)-N-(2-((2-(dimethylamino)ethyl)-(methyl)amino)-5-((4-(2-(3-hydroxypyrrolidin-1-yl)-5,6-dihydro-4H-pyrrolo[3,2,1-ij]quinolin-1-yl)pyrimidin-2-yl)amino)-4-methoxyphenyl)-acrylamide]: the figures for the IC50 in test [1], in test [2] and in test [4] were less than 100 nM, less than 100 nM and 100 to 500 nM, respectively. In test [3], the “EGFR exon 19 deletion and exon 20 T790M mutation IC50” value is on record as “A (IC50 value for the indicated mutant below about 100 nM)”.

Take `C=CC(=O)Nc1cc(Nc2ncc(Cl)c(-c3nn4c5c(cccc35)OCC4)n2)c(OC)cc1N(C)CCN(C)C` [Example 57, N-(5-((5-chloro-4-(2,3-dihydro-[1,4]oxazino[2,3,4-hi]indazol-6-yl)pyrimidin-2-yl)amino)-2-((2-(dimethylamino)ethyl)(methyl)amino)-4-methoxyphenyl)acrylamide]: the values for the IC50 in test [1], in test [2] and in test [4] were less than 100 nM, less than 100 nM and 100 to 500 nM, respectively. The “EGFR exon 19 deletion and exon 20 T790M mutation IC50” value in test [3] was “A (IC50 value for the indicated mutant below about 100 nM)”.

For the compound `C=CC(=O)Nc1cc(Nc2ncc(Cl)c(-c3cn4c5c(cccc35)CCC4)n2)c(CC)cc1N(C)CCN(C)C` [Example 18, N-(5-((5-chloro-4-(5,6-dihydro-4H-pyrrolo[3,2,1-ij]quinolin-1-yl)pyrimidin-2-yl)amino)-2-((2-(dimethylamino)ethyl)(methyl)amino)-4-ethylphenyl)acrylamide], the IC50 is less than 100 nM in test [1], less than 100 nM in test [2] and 100 to 500 nM in test [4]. In addition, the “EGFR exon 19 deletion and exon 20 T790M mutation IC50” value in test [3] is recorded as “A (IC50 value for the indicated mutant below about 100 nM)”.

On to `C=CC(=O)Nc1cc(Nc2ncc(OCCOC)c(-c3cn4c5c(cccc35)CCC4)n2)c(OC)cc1N(C)CCN(C)C` [Example 104], for which the results for the IC50 in test [1], in test [2] and in test [4] were less than 100 nM, less than 100 nM and 100 to 500 nM, respectively. In addition, in test [3], the “EGFR exon 19 deletion and exon 20 T790M mutation IC50” value was “A (IC50 value for the indicated mutant below about 100 nM)”.

The record behind these values is patent US20170166598A1, “HETEROARYL COMPOUNDS FOR KINASE INHIBITION” (ARIAD PHARMACEUTICALS, INC., priority 2014, published 2017).
